The text below walks through data of patent US10800806B2, “Sterol derivatives and use thereof for treating diseases involving transformed astrocyte cells or for treating malignant haemopathies” (BETA INNOV, priority 2012, dated 2020).

Bounds are passed on as bounds.

The subject of data set [1] is Neuroblastoma (line SH-SY5Y, ATCC-CRL-2266). In words: Activity in vitro on human neuroblastomas. The format is cell-based. Particulars: 22 μM once, concentrated liposomal form, 28 days of treatment. The protocol:
They were obtained from the ATCC collection (Ref. ATCC-CRL-2266). The culture conditions are based on the recommendations in the ATCC information leaflet. • Chronic Myelomonocytic Leukaemia (CMML)
The neuroblastomas were treated with empty liposomes (controls) or with liposomes containing molecule 1.b or 2.b, 24 h after starting the culture. The cells are treated once with 22 μM of molecule 1.b or 22 μM of molecule 2.b. The liposomal form is concentrated.
For the control cells, the upper left hand photograph marked with the letter A was taken after 7 days of treatment; the lower left hand photograph marked with the letter B was taken after 28 days of treatment.
For the cells treated with the concentrated liposomal molecule 1.b, the photograph marked with the letter C (in the middle, at the top) was taken after 7 days of treatment and the photograph marked with the letter D (in the middle, at the bottom) after 28 days of treatment. For the cells treated with the concentrated liposomal molecule 2.b, the upper right hand photograph marked with the letter E was taken after 7 days of treatment.

For data set [2], the system named is human glioblastoma lines (GBM, line U-87 MG). In words: Anti-GBM activity in vitro on cultures of human U87-MG cells, cell aggregates (CA). The format is cell-based. The protocol:
(§1) Plastic flat-bottomed 96-well culture plates (NUNC, USA) treated for cell culture (Sigma-Aldrich, ref. 114754) are used; 1500 cells are seeded per well in 200 μl of culture medium. At the time of treatment, 100 μl of pure culture medium, 100 μl of culture medium containing ethanol, or liposomes, or 100 μl of culture medium containing the active ingredients are added per well; the final volume of the culture medium, after treatment, is therefore 300 μl for all the wells.
The human glioblastoma lines (GBM, line U-87 MG) and their culture medium (Eagle's Minimum Essential Medium or EMEM) were obtained from ATCC (USA, ref. ATCC-HTB-14). Culture of the cells is started and maintained according to the recommendations of the ATCC. These lines are commonly used “in vitro” and “in vivo” for testing anti-GBM potential. The doubling time of these lines is 16 h.
The active ingredients are either dissolved in absolute ethanol (AnalaR, NORMAPUR, VWR, France) or in the form of a liposomal solution, such as 10 μl of the stock solutions diluted in 990 μl and then added to the culture wells ([…] medium per well BI-GBM: 300 μl).
(§2) When the active ingredients are in ethanolic solution, the culture medium contains […] ethanol (v/v).
Briefly, the compounds to be tested, namely the compounds according to the invention (active ingredients) or 7β-OHCH—C3-ester (a derivative of 7beta-hydroxysterol esterified in position 3 with an oleate group, the synthesis of which is described by Rakotoarivelo et al. (18) and used as control), soya phosphatidylcholine (Sigma) as well as cholesteryl-3-sulphate (Sigma) are taken from their stock solutions prepared from dichloroethane in the case of the active ingredients and the 7β-OHCH—C3-ester, a chloroform:methanol mixture (9:1, v/v) in the case of phosphatidylcholine and chloroform in the case of cholesteryl-3-sulphate. The molar ratios are 1 M/0.1 M/0.25 M for phosphatidylcholine, cholesteryl-3-sulphate and the 7β-OHCH—C3-ester and the active ingredients respectively.
After evaporation, a solution of PBS saline, without Ca^2+ and Mg^2+, pH7.2 (BioRad) is added to the dry compound. The volume of buffer and the mass of the products are adjusted so that 20 or 10 μl of liposomes added to 90 μl of culture medium gives the desired final concentrations. The liposomes are formed by the extrusion technique with Liposofast (Sodexim, SA Muizon, France). The solution is passed through polycarbonate filtration membranes (100 nm) 41 times. The liposomes are sterilized by filtration on […] Millipore membranes.
(§3) For example, in the case of the cultures in 96-well plates and as a function of the magnification of the microscope used (objectives×10 or ×20, oculars×10), a photograph taken represents a field of view with a diameter equal to 1/5 of the diameter of a well. Therefore the total number of cells in a well is equal to […] the number of cells per photograph. This technique was compared with a standard technique (trypsinization of the cell layer, centrifugation of the cells, suspension of the cells in physiological saline solution and counting with a THOMA cell) in the case of the C6 cells. The results obtained are identical for both methods.
(§4) The culture medium is withdrawn from each well and 50 μl of Laemmli buffer (0.1 ml of Tris, 0.8 ml of glycerol, 1.6 mL of 10% SDS, 8 ml q.s.f ultrapure water) is added per well.
This test makes it possible to detect the cellular respiration, especially the mitochondrial respiration. The stock solution of tetrazolium salt MTT (3-(4,5-dimethylthiazol-2-yl)-2,5-diphenyl tetrazolium bromide, Sigma-Aldrich, USA, ref. M5655) is prepared with 10 mg of MIT/ml of PBS buffer (phosphate-buffered saline, SIGMA, ref. D 1408). This solution is added directly to the culture medium in each well; the final concentration of MTT is 25 μg/ml. The plate is then incubated at 37° C. for at least 1 h. […]

The subject of data set [3] is immortalized (spontaneously transformed) rat astrocyte lines. The note with it: in vitro; cited from earlier work.
Another data set deals with GBMs (rat line C6). The note with it: in vitro; cited from earlier work.
The subject of data set [4] is CD133+ stem cells (U87-MG cultures). As to the kind of experiment: Immunolabelling of the CD133+ stem cells with the A/B peroxidase system. In kind it is cell-based, human. The note with it: for CD133+ cells, percentage relative to the controls: 80 μM in liposomal form; for destruction of the CD133+ stem cells: liposomal form. The protocol: The anti-CD133 (poly, Abnova), anti-GFAP (poly, Sigma), anti-NFL (mono, Santa Cruz) and anti-fibroblast (ERTR7, Santa Cruz) primary antibodies are diluted to 1/100 in the case of the first three antibodies and to 1/50 in the case of the last.
The secondary antibodies corresponding to recognition of the primary antibodies are anti-rabbit antibodies coupled to peroxidase (goat, Sigma), anti-mouse coupled to Dylight 488 (sheep, Sigma), anti-mouse coupled to Dylight 488 (sheep, Sigma) and anti-rat coupled to FITC (rabbit, Sigma). The dilutions are 1/4000, 1/1000, 1/4000 and 1/400 respectively.
The cells are permeabilized for 5 min with 0.1% Triton X-100 (Sigma) in PBS (Fisher Scientific). The nonspecific sites are blocked with 2% BSA (Sigma) in PBS. Incubations are carried out for 1 h at ambient temperature, 48 h at 4° C., 24 h at 4° C. and 1 h at ambient temperature for the anti-CD133, anti-GFAP, anti-NFL and anti-Fibroblast antibodies respectively. Incubation with the secondary antibodies is carried out for 1 h at ambient temperature. The CD133 positive cells are detected by the DAB/H2O2 system (Sigma), and observed with an optical microscope.
The immunolabelling is carried out as described above (section II, A).

A short description of another data set: Solubility in ethanol. In kind it is physicochemical. The note with it: ethanolic form.
The next data set deals with C6 cells. In words: Anti-GBM activity in vitro on cultures of C6 cells (cell counting, protein assay, MTT test). In kind it is cell-based, rat. The protocol: as §1
The cultures are incubated in a Sanyo incubator (Japan, model MCO-19AlC-UV) at 37° C. and in an atmosphere with 5% CO2 and saturated in humidity. The cells are observed with an inverted microscope (Nikon Eclipse TS100, Japan) and the photographs are taken with a camera (DIGITAL camera with c-mount; LABOVER, France). The culture hood is a microbiological safety hood MSC (thermo SCIENTIFIC, model HERA SAFE KS12, France).
The type C6 cell line was obtained by Benda et al. (16) from rat brain tumours, induced by N-methylnitrosourea. This cell type is used as “in vitro” and “in vivo” model for evaluating anti-GBM potential. The lines originate from the former Strasbourg Neurochemistry Centre (U44 INSERM and UPR 416 CNRS).
The culture medium is made up of 70% Minimum Essential Medium (MEM; (Fischer Scientifique, ref. 61100) and 30% Hanks solution (SIGMA, ref. H 9269). The following are added to the culture medium: foetal calf serum (FCS; Fischer Scientifique, ref. 10108165) at a final concentration of 5% (v/v), an antibiotic solution of ciprofloxacin hydrochloride 5 μg/mL (EUROMEDEX, ref. UC5074) and a solution of Fungizone 2.5 μg/mL (INVITROGEN, ref. 15290-026). The doubling time of this cell type is 17 h. • GBM lines of human origin
The active ingredients are either dissolved in absolute ethanol (AnalaR, NORMAPUR, VWR, France) or in the form of a liposomal solution, such as 10 μl of the stock solutions diluted in 990 μl and then added to the culture wells (200 μl of culture medium) giving concentrations of 30.0, 15.0, 7.5 and 3.3 μM (final volume of culture medium per well BI-GBM: 300 μl).
as §2
A method of cell counting on photographs was used.
as §3, §4
In control wells, 10 μl of a solution of bovine serum albumin range (crystallized BSA, Sigma) is added; the range is from 0 to 20 μg per well. The wells are then supplemented with 40 μl of Laemmli buffer. Finally, 200 μl of solution of BCA reagent is added (Pierce, USA; BCA Protein Assay Kit; ThemoScientific, France).
The culture plates are incubated for 30 min at 37° C. The optical density for each well is read and quantified by a plate reader (BioRad, USA, iMark Microplate reader 12222) at 570 nm.
This test makes it possible to detect the cellular respiration, especially the mitochondrial respiration. The stock solution of tetrazolium salt MTT (3-(4,5-dimethylthiazol-2-yl)-2,5-diphenyl tetrazolium bromide, Sigma-Aldrich, USA, ref. M5655) is prepared with 10 mg of MIT/ml of PBS buffer (phosphate-buffered saline, SIGMA, ref. D 1408). […]
For orientation: Tetrazolium assays rely on reduction of a dye to a coloured formazan, in cell work by metabolically active cells.

Consider `CC(=O)OC1C=C2CC(OC(=O)C(C)NC(=O)CNC(=O)OCc3ccccc3)CCC2(C)C2CCC3(C)C(C(C)CCCC(C)C)CCC3C12` (centres unmarked) [Molecule 1.b, 7-acetoxy-10,13-dimethyl-17-(6-methylheptan-2-yl)-2,3,4,7,8,9,10,11,12,13,14,15,16,17-tetradecahydro-1H-cyclopenta[a]phenanthren-3-yl 2-(2-(((benzyloxy)carbonyl)amino)acetamido)propanoate], for which the “toxicity to neuroblastoma cells compared to the control cells” value in data set [1] is reported as “toxic to almost all the cells”.

In the case of `CC(C)CCC[C@@H](C)[C@H]1CC[C@H]2[C@@H]3[C@@H](O)C=C4C[C@@H](O)CC[C@]4(C)[C@H]3CC[C@]12C` [7β-OHCH, 7β-Hydroxycholesterol], the “death of GBMs” value in data set [2] (control experiments at the very low levels formed from molecule 2.b) is given as “do not induce any death of GBMs”. In addition, the cytotoxicity result (in data set [3]; in the data set with GBMs (rat line C6)) was “remarkable cytotoxicity” in each case.

`CCCCCCCC/C=C\CCCCCCCC(=O)O[C@H]1CC[C@@]2(C)C(=C[C@H](O)[C@H]3[C@@H]4CC[C@H]([C@H](C)CCCC(C)C)[C@@]4(C)CC[C@@H]32)C1` [7β-OHCH—C3-ester]: the “action on the GBMs (CA)” value is on record as “does not act” in data set [2] (ethanolic form) and “only acts in liposomal form” in data set [2] (liposomal form, 80 μM). Besides, the anti-tumour activity entry in data set [2] (ethanolic form) was “no anti-tumour activity is observed”. Also, the “efficacy on increasing the dose” value in data set [2] (liposomal form) is recorded as “not better, or even decreases”. Besides, the “reduction of the level of proteins relative to the untreated control cells” value in data set [2] (liposomal form) was 85%. Further, the MTT/cell ratio result in data set [2] (liposomal form, 80 μM) is on record as “does not vary”. For the same compound, the “cell multiplication after replacing the medium with fresh drug-free medium” value in data set [2] (liposomal form, medium replaced on the 13th day of treatment) was “cell multiplication is observed”. In data set [2] (medium replaced on the 13th day, two days later), the “increase in the MTT test after removal of the drug” value is 40%. Further, the “CD133+ cells, percentage relative to the controls” value came out at 100% in data set [4] (4 days of treatment) and 50% in data set [4] (22 days of treatment). Besides, the “destruction of the CD133+ stem cells” value in data set [4] is given as “This is not the case”; in data set [4] (listed as 7beta-OHCH-C3-ester) it was “does not completely destroy the CD 133+”. Also, the “solubility in ethanol (concentration above which no longer soluble)” value in the data set “Solubility in ethanol” is at most 30 µM.

In the case of `CC(C)CCCC(C)C1CCC2C3C(OC(=O)OC(C)(C)C)C=C4CC(OC(=O)C(C)NC(=O)CNC(=O)OCc5ccccc5)CCC4(C)C3CCC12C` (centres unmarked) [Molecule 1.a, 7-((tert-butoxycarbonyl)oxy)-10,13-dimethyl-17-(6-methylheptan-2-yl)-2,3,4,7,8,9,10,11,12,13,14,15,16,17-tetradecahydro-1H-cyclopenta[a]phenanthren-3-yl 2-(2-(((benzyloxy)carbonyl)amino)acetamido)propanoate], in the data set with C6 cells (15 μM, 19 days of treatment), the “increase of the MTT/cell ratio relative to the control cultures” value was 20%. Moreover, the “reduction of the number of cells, the level of proteins and the MTT assay” value is listed as 30% in the data set with C6 cells (15 μM, ethanolic form, 14 days of treatment) and at least 97% with C6 cells (15 μM, ethanolic form, 19 days of treatment). In addition, the dose-dependence result with C6 cells (7.5 and 3.3 μM, 19 days of treatment) is “dose-dependence is also observed”. The same compound gave a Live residual cells in the data set on C6 cells (15 μm, ethanol 3%) of 3%. The cytotoxicity result in the data set on C6 cells (ethanolic form, after 19 days of treatment) is reported as “cytotoxic”.
